Assay results taken from patent publication US7312239B2, “Medicament for prevention and/or therapy of arterial wall disorder” (Mitsubishi Pharma Corporation, priority 2002, dated 2007).

Legend:
[1] = system: abdominal aorta of rabbits injured by use of a balloon; experiment: Balloon injury of abdominal aorta in cholesterol-fed rabbits, ratio of new intima to new media (I/M); assay type: in vivo, Japanese white rabbits; details: rabbits on 1% cholesterol food, 10 mg/kg intravenous injection twice per day from the day before injury, 10th week, p=0.018 vs control 0.475±0.136
Description: (§1) Japanese white rabbits were divided into two groups, an edaravone group (n=6) and a control group (n=6), and they were fed with 1% cholesterol food for 10 weeks. On the 8th week, the rabbits of both groups were injured such that their abdominal aorta was damaged by use of a balloon. For the edaravone group, edaravone was administered every day (10 mg/kg, intravenous injection twice per day) from the day before the balloon injury. For the control group, a physiological salt solution was administered. On the 10th week, the rabbits were sacrificed, and their abdominal aorta was excised. The ratio of a new intima to a new media (the ratio of the intimal area of a blood vessel section to the medial area thereof; I/M) was measured as follows. First, total 5 portions were cut out of the abdominal aorta into round slices each having a width of 5 mm, and HE-stained samples were prepared therefrom. A new intimal area and a new medial area were analyzed with computer software, and the mean value of the 5 portions was obtained, followed by calculation of I/M.

[2] = Total cholesterol, triglyceride and lipid peroxide in serum of balloon-injured cholesterol-fed rabbits; assay type: in vivo, Japanese white rabbits; details: 10 mg/kg i.v. twice per day, before cholesterol food, at balloon injury, at sacrifice, vs control group
Description: as §1
Moreover, total cholesterol (TC), triglyceride (TG) and lipid peroxide (LPO) in serum were measured, before the rabbits were fed with cholesterol food, when they were injured by use of a balloon, and when they were sacrificed.

[3] = system: right common carotid artery injured by abrasion with a 2F balloon; experiment: Balloon injury of right common carotid artery in ovary-eliminated rats, I/M; assay type: in vivo; details: ovary elimination (OVX) female SD rats, 30 mg/kg/day oral for 3 days after operation, 14th day; p<0.01 vs OVX+V 1.36±0.12
Description: (§2) 11′-week-old female SD rats were divided into two groups, an ovary elimination group (OVX) and an ovary non-elimination group (INT). To the OVX group, edaravone (Ed) (30 mg/kg/day) (n=8) or vehicle (V) (n=7) was orally administered, and to the INT group (n=4), vehicle (V) was administered. The vascular endothelium of the right common carotid artery was injured by abrasion with a 2F balloon. The above drugs were administered for 3 days immediately after the above operation. On the 14th day, the blood vessel was excised, and the ratio of a new intima to a new media (I/M) was calculated.

[4] = system: right common carotid artery injured by abrasion with a 2F balloon; experiment: Balloon injury of carotid artery in OLETF rats with type II diabetes, I/M; assay type: in vivo; details: male OLETF rats with type II diabetes, administered from 3 days before to 14th day after operation; p<0.01 vs vehicle 1.12±0.15
Description: as §2, with “calculated. 30-week-old male OLETF rats with type II diabetes were divided into two groups, an edaravone (Ed) administration group (n=4) and a vehicle (V) administration group (n=4). The above-described blood vessel injury was carried out on them. The above drugs were continuously administered from 3 days before the above operation to the 14th day after the above operation. Thereafter, the ratio of a new intima to a new media (I/M) was calculated.” for “calculated.”

## CC1=NN(c2ccccc2)C(=O)C1 [edaravone, 3-methyl-1-phenyl-2-pyrazolin-5-one]
[1]
  ratio of a new intima to a new media (I/M): 0.344±0.055
[2]
  lipid peroxide (LPO) in serum: not significantly different
  total cholesterol (TC) in serum: not significantly different
  triglyceride (TG) in serum: not significantly different
[3]
  ratio of a new intima to a new media (I/M): 0.82±0.09
[4]
  ratio of a new intima to a new media (I/M): 0.55±0.02
